How the values were obtained:
MRSA COL (MB5393) [1] = test: TarO Inhibitor/β-Lactam Synergy Assay (growth, OD600); format: cell-based, Staphylococcus aureus; conditions: for MITC95 TarO inhibitor + 4 μg/mL IPM; Bacteria: SA_MB5393: in combination with 4 μg/mL imipenem (IPM); for MITC95 TarO inhibitor + 8 μg/mL DCX; Bacteria: SA_MB5393: in combination with 8 μg/mL dicloxacillin (DCX)
Procedure: The TarO inhibitor/β-lactam synergy assay was performed to measure the re-sensitization of methicillin-resistant Staphylococci bacteria (MB5393: MRSA COL) to β-lactam antibiotics by TarO inhibitors. MRSA COL is a hospital-acquired penicillinase-negative clinically isolated strain commonly used in Staphylococcus aureus studies and is fully resistant to the antimicrobial bioactivity of β-lactam antibiotics, including but not limited to imipenem and dicloxacillin. […] MRSA COL is fully refractory to β-lactam antibiotic effect at the current clinical breakpoint concentrations and as such MRSA COL is fully viable at these concentrations.
The β-lactam antibiotic concentration was fixed at the clinical breakpoint (imipenem 4 μg/ml or dicloxacillin 8 μg/ml) and the TarO inhibitors were titrated by 2 fold starting from the highest concentration of 200 μM with final DMSO concentration of 2% in the assay. 5×10^5 colony forming unit of MRSA COL in cation-adjusted Mueller Hinton broth (CAMHB) was then mixed and the assay plate was incubated for 20 hours at 37° C. without shaking. After 20 hours, the optical density at 600 nm (OD600) was read for all wells to determine relative growth of MRSA COL.

MRSA COL (MB5393) [2] = test: as above; format: cell-based; conditions: Staphylococcus aureus, TarO inhibitor alone, >200 μM = 95% growth inhibition not achieved, 20 hours at 37° C., read-out: MITC95 TarO inhibitor alone, Bacteria: SA_MB5393

Row | SMILES | MITC95 TarO inhibitor + 4 μg/mL IPM; Bacteria: SA_MB5393 (MRSA COL (MB5393) [1]) [µM] | MITC95 TarO inhibitor + 8 μg/mL DCX; Bacteria: SA_MB5393 (MRSA COL (MB5393) [1]) [µM] | IC95 (MRSA COL (MB5393) [2]) [µM]
1 | C[C@H]1[C@@H](c2cc(C(F)(F)F)cc(C(F)(F)F)c2)OC(=O)N1C(=O)CCc1cccc2ccncc12 [Example 75, (4S,5R)-5-[3,5-bis(trifluoromethyl)phenyl]-3-(3-isoquinolin-8-ylpropanoyl)-4-methyl-1,3-oxazolidin-2-one] | 0.13 | 0.78 | > 200
2 | C[C@H]1[C@@H](c2cc(C(F)(F)F)cc(C(F)(F)F)c2)OC(=O)N1C(=O)CCc1cccc2ccccc12 [Example 67, (4S,5R)-5-[3,5-bis(trifluoromethyl)phenyl]-4-methyl-3-(3-naphthalen-1-ylpropanoyl)-1,3-oxazolidin-2-one] | 0.01 | – | > 200
3 | O=C(NCc1cncc2ccccc12)N1C(=O)O[C@H](c2cc(F)cc(C(F)(F)F)c2)[C@@H]1CO [Example 57, (4S,5R)-5-[3-fluoro-5-(trifluoromethyl)phenyl]-4-(hydroxymethyl)-N-(isoquinolin-4-ylmethyl)-2-oxo-1,3-oxazolidine-3-carboxamide] | 0.33 | 1.56 | > 200
4 | C[C@H]1[C@@H](c2cc(F)cc(C(F)(F)F)c2)OC(=O)N1C(=O)NCc1ccccc1C(F)(F)F [Example 7, (4S,5R)-5-[3-fluoro-5-(trifluoromethyl)phenyl]-4-methyl-2-oxo-N-[2-(trifluoromethyl)benzyl]-1,3-oxazolidine-3-carboxamide] | 0.05 | 0.33 | > 200
5 | C[C@H]1[C@@H](c2cc(C(F)(F)F)cc(C(F)(F)F)c2)OC(=O)N1C(=O)Cc1cccc2ccccc12 [Example 71, (4S,5R)-5-[3,5-bis(trifluoromethyl)phenyl]-4-methyl-3-(naphthalen-1-ylacetyl)-1,3-oxazolidin-2-one] | 0.89 | – | > 200
6 | CC[C@H]1[C@@H](c2cc(C(F)(F)F)cc(C(F)(F)F)c2)OC(=O)N1C(=O)CCc1cncc2ccccc12 [Example 83, (4S,5R)-5-[3,5-bis(trifluoromethyl)phenyl]-4-ethyl-3-(3-isoquinolin-4-ylpropanoyl)-1,3-oxazolidin-2-one] | 0.06 | 0.59 | > 200
7 | C[C@H]1[C@@H](c2cc(F)cc(C(F)(F)F)c2)OC(=O)N1C(=O)NCc1ccccc1S(C)(=O)=O [Example 44, (4S,5R)-5-[3-fluoro-5-(trifluoromethyl)phenyl]-4-methyl-N-[2-(methylsulfonyl)benzyl]-2-oxo-1,3-oxazolidine-3-carboxamide] | 12.50 | 25 | > 200
8 | C[C@H]1[C@@H](c2cc(Cl)cc(C(F)(F)F)c2)OC(=O)N1C(=O)CCc1cccc2ccccc12 [Example 66, (4S,5R)-5-[3-chloro-5-(trifluoromethyl)phenyl]-4-methyl-3-(3-naphthalen-1-ylpropanoyl)-1,3-oxazolidin-2-one] | 0.03 | 0.20 | > 200
9 | C[C@H]1[C@@H](c2cc(F)cc(C(F)(F)F)c2)OC(=O)N1C(=O)NCc1cccc2ncccc12 [Example 37, (4S,5R)-5-[3-fluoro-5-(trifluoromethyl)phenyl]-4-methyl-2-oxo-N-(quinolin-5-ylmethyl)-1,3-oxazolidine-3-carboxamide] | 0.98 | 2.73 | > 200
10 | C[C@H]1[C@@H](c2cc(F)cc(C(F)(F)F)c2)OC(=O)N1C(=O)NCc1cccc2cncnc12 [Example 30, (4S,5R)-5-[3-fluoro-5-(trifluoromethyl)phenyl]-4-methyl-2-oxo-N-(quinazolin-8-ylmethyl)-1,3-oxazolidine-3-carboxamide] | 0.68 | 4.69 | > 200
11 | COc1cc([C@H]2OC(=O)N(C(=O)NCc3cncc4ccccc34)[C@H]2CO)cc(C(F)(F)F)c1 [Example 55, (4S,5R)-4-(hydroxymethyl)-N-(isoquinolin-4-ylmethyl)-5-[3-methoxy-5-(trifluoromethyl)phenyl]-2-oxo-1,3-oxazolidine-3-carboxamide] | 0.30 | 1.18 | > 200
12 | C[C@H]1[C@@H](c2cccc(OC(F)(F)F)c2)OC(=O)N1C(=O)CCc1cccc2ccccc12 [Example 69, (4S,5R)-4-methyl-3-(3-naphthalen-1-ylpropanoyl)-5-[3-(trifluoromethoxy)phenyl]-1,3-oxazolidin-2-one] | 0.11 | 0.39 | > 200
13 | C[C@H]1[C@@H](c2cc(C(F)(F)F)cc(C(F)(F)F)c2)OC(=O)N1C(=O)CCc1cncc2ccccc12 [Example 65, (4S,5R)-5-(3,5-bis(trifluoromethyl)phenyl)-3-(3-(isoquinolin-4-yl)propanoyl)-4-methyloxazolidin-2-one] | 0.06 | 0.20 | > 200
14 | C[C@H]1[C@@H](c2cc(C(F)(F)F)cc(C(F)(F)F)c2)OC(=O)N1C(=O)NCc1cccc2c1OCCO2 [Example 49, (4S,5R)-5-[3,5-bis(trifluoromethyl)phenyl]-N-(2,3-dihydro-1,4-benzodioxin-5-ylmethyl)-4-methyl-2-oxo-1,3-oxazolidine-3-carboxamide] | 0.02 | 0.13 | > 200
15 | C[C@H]1[C@@H](c2cc(C(F)(F)F)cc(C(F)(F)F)c2)OC(=O)N1C(=O)NCc1cncc2ccccc12 [Example 1, (4S,5R)-5-(3,5-bis(trifluoromethyl)phenyl)-N-(isoquinolin-4-ylmethyl)-4-methyl-2-oxooxazolidine-3-carboxamide] | 0.03 | 0.39 | > 200
16 | C[C@H]1[C@@H](c2cccc(F)c2)OC(=O)N1C(=O)CCc1cncc2ccccc12 [Example 80, (4S,5R)-5-(3-fluorophenyl)-3-(3-isoquinolin-4-ylpropanoyl)-4-methyl-1,3-oxazolidin-2-one] | 4.69 | – | > 200
17 | C[C@H]1[C@@H](c2cc(F)cc(C(F)(F)F)c2)OC(=O)N1C(=O)NCc1ccccc1[N+](=O)[O-] [Example 3, (4S,5R)-5-[3-fluoro-5-(trifluoromethyl)phenyl]-4-methyl-N-(2-nitrobenzyl)-2-oxo-1,3-oxazolidine-3-carboxamide] | 0.33 | 2.60 | > 200
18 | C[C@H]1[C@@H](c2cc(F)cc(C(F)(F)F)c2)OC(=O)N1C(=O)NCc1cccc2c1OCCO2 [Example 11, (4S,5R)-N-(2,3-dihydro-1,4-benzodioxin-5-ylmethyl)-5-[3-fluoro-5-(trifluoromethyl)phenyl]-4-methyl-2-oxo-1,3-oxazolidine-3-carboxamide] | 0.13 | 1.42 | > 200
19 | C[C@H]1[C@@H](c2cc(F)cc(C(F)(F)F)c2)OC(=O)N1C(=O)NCc1ccccc1Cl [Example 21, (4S,5R)-N-(2-chlorobenzyl)-5-[3-fluoro-5-(trifluoromethyl)phenyl]-4-methyl-2-oxo-1,3-oxazolidine-3-carboxamide] | 0.16 | 1.73 | > 200
20 | Cc1cccnc1CNC(=O)N1C(=O)O[C@H](c2cc(C(F)(F)F)cc(C(F)(F)F)c2)[C@@H]1C [Example 31, (4S,5R)-5-[3,5-bis(trifluoromethyl)phenyl]-4-methyl-N-[(3-methylpyridin-2-yl)methyl]-2-oxo-1,3-oxazolidine-3-carboxamide] | 0.43 | 8.33 | > 200
21 | C[C@H]1[C@@H](c2cc(F)cc(C(F)(F)F)c2)OC(=O)N1C(=O)NCc1ccnc2ccccc12 [Example 23, (4S,5R)-5-[3-fluoro-5-(trifluoromethyl)phenyl]-4-methyl-2-oxo-N-(quinolin-4-ylmethyl)-1,3-oxazolidine-3-carboxamide] | 0.61 | 4.84 | > 200
22 | Cc1cc(F)cc([C@H]2OC(=O)N(C(=O)CCc3cncc4ccccc34)[C@H]2C)c1 [Example 79, (4S,5R)-5-(3-fluoro-5-methylphenyl)-3-(3-isoquinolin-4-ylpropanoyl)-4-methyl-1,3-oxazolidin-2-one] | 1.17 | 12.50 | > 200

Source: US11141410B2 (MERCK SHARP & DOHME CORP., priority 2015, dated 2021)
